The record followed here is patent US7449477B2, “7-phenyl-isoquinoline-5-sulfonylamino derivatives as inhibitors of akt (protein kinase B)” (Eli Lilly and Company, priority 2003, dated 2008).

The test concerns the target T1, active human Akt1 (Homo sapiens, UniProt P31749).
T1 construct: Active human recombinant Akt1 (full-length) purified from Sf9 insect cells; purchased Upstate Biotechnology, Inc. 14-276; host or cells: Sf9 insect cells
Briefly: Akt1 Phosphorylation Assay (phosphocellulose filter-binding, 33P-Crosstide). In kind it is biochemical. The settings on record: active human recombinant Akt1 (full-length) 10 nM; 12.5 μM Crosstide; 20 μM ATP; 30 minutes at room temperature. The gist of the method:
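Full-length active human Akt1 (Sf9-expressed, 10 nM) phosphorylated 12.5 μM Crosstide with 20 μM ATP plus 1 μCi γ-33P-ATP in 35 mM HEPES pH 7.3, 15 mM MgCl2, 0.4 mM DTT, 4% DMSO. After 30 min at room temperature, H3PO4-stopped reactions were captured on phosphocellulose filters, washed and scintillation-counted.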

Where a name gives a salt, the structure may show the parent alone.

T1 sequence (P31749 whole entry): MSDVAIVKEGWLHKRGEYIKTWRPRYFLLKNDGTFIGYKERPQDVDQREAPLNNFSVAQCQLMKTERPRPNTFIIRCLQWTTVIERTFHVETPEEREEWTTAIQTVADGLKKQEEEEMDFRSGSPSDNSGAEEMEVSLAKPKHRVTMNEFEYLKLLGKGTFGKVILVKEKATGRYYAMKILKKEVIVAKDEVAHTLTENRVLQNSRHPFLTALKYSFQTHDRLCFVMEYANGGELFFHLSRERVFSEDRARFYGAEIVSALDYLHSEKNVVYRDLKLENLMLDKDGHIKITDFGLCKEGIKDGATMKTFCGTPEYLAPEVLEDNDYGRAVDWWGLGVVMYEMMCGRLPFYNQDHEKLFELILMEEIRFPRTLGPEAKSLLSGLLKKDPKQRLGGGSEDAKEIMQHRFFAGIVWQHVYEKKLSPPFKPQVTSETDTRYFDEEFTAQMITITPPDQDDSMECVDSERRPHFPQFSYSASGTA

As to `O=S(=O)(NCCNCC(O)C(O)c1ccc(S(=O)(=O)C(F)(F)F)cc1)c1cc(-c2ccccc2)cc2cnccc12` (stereo not shown) [Example 113, 7-Phenyl-isoquinoline-5-sulfonic acid {2-[2,3-dihydroxy-3-(4-trifuoromethanesulfonyl-phenyl)-propylamino]-ethyl}-amide, dihydrochloride salt], the IC50 – broadly, the midpoint of a concentration-inhibition curve – was not above 2000 nM.
